Assays:
Assay in all cases: relative viability (nuclei count vs DMSO), 5 days (fraction); higher = more cells survive
BMX-IN-1 + Foretinib = compound: C=CC(=O)Nc1cc(-n2c(=O)ccc3cnc4ccc(-c5ccc(NS(C)(=O)=O)cc5)cc4c32)ccc1C [BMX-IN-1] + COc1cc2c(Oc3ccc(NC(=O)C4(C(=O)Nc5ccc(F)cc5)CC4)cc3F)ccnc2cc1OCCCN1CCOCC1 [Foretinib] (partner 0.25 µM)
Method in brief: (§1)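 Nuclei were stained with Hoechst during a one-step fixation (final 0.05% Triton X-100, 1% formaldehyde, 1 ug/ml Hoechst) carried out 5 days after dosing, then counted on 4× images. The cells, lung cancer lines in 1536-well plates, had been dosed by pin tool the day after seeding with one drug alone or a fixed anchor-drug dose plus five library-drug doses (not always all listed) in √10 steps. Relative viability is the nuclei count in treated wells divided by that in vehicle wells, and each value is the median of duplicate plates.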

BMX-IN-1 + Dasatinib = compound: C=CC(=O)Nc1cc(-n2c(=O)ccc3cnc4ccc(-c5ccc(NS(C)(=O)=O)cc5)cc4c32)ccc1C [BMX-IN-1] + Cc1nc(Nc2ncc(C(=O)Nc3c(C)cccc3Cl)s2)cc(N2CCN(CCO)CC2)n1 [Dasatinib] (partner 0.075 µM)
Method in brief: as §1

BMX-IN-1 + Bortezomib = compound: C=CC(=O)Nc1cc(-n2c(=O)ccc3cnc4ccc(-c5ccc(NS(C)(=O)=O)cc5)cc4c32)ccc1C [BMX-IN-1] + CC(C)C[C@H](NC(=O)[C@H](Cc1ccccc1)NC(=O)c1cnccn1)B(O)O [Bortezomib] (partner 0.002 µM)
Method in brief: as §1

BMX-IN-1 + Lapatinib = compound: C=CC(=O)Nc1cc(-n2c(=O)ccc3cnc4ccc(-c5ccc(NS(C)(=O)=O)cc5)cc4c32)ccc1C [BMX-IN-1] + CS(=O)(=O)CCNCc1ccc(-c2ccc3ncnc(Nc4ccc(OCc5cccc(F)c5)c(Cl)c4)c3c2)o1 [Lapatinib] (partner 2 µM)
Method in brief: as §1

| Cell Line | relative viability (BMX-IN-1 + Foretinib; first compound 0.02 µM) | relative viability (BMX-IN-1 + Foretinib; first compound 0.2 µM) | relative viability (BMX-IN-1 + Foretinib; first compound 0.6325 µM) | relative viability (BMX-IN-1 + Foretinib; first compound 2 µM) | relative viability (BMX-IN-1 + Dasatinib; first compound 0.02 µM) | relative viability (BMX-IN-1 + Dasatinib; first compound 0.2 µM) | relative viability (BMX-IN-1 + Dasatinib; first compound 0.6325 µM) | relative viability (BMX-IN-1 + Dasatinib; first compound 2 µM) | relative viability (BMX-IN-1 + Bortezomib; first compound 0.02 µM) | relative viability (BMX-IN-1 + Bortezomib; first compound 0.2 µM) | relative viability (BMX-IN-1 + Bortezomib; first compound 0.6325 µM) | relative viability (BMX-IN-1 + Bortezomib; first compound 2 µM) | relative viability (BMX-IN-1 + Lapatinib; first compound 0.02 µM) | relative viability (BMX-IN-1 + Lapatinib; first compound 0.2 µM) | relative viability (BMX-IN-1 + Lapatinib; first compound 0.6325 µM) | relative viability (BMX-IN-1 + Lapatinib; first compound 2 µM) |
| --- | --- | --- | --- | --- | --- | --- | --- | --- | --- | --- | --- | --- | --- | --- | --- | --- |
| NCI-H1755 | 0.833 | 0.891 | 1.05 | 0.905 | 0.389 | 0.452 | 0.438 | 0.48 | 0.971 | 1 | 1 | 0.987 | 1.2 | 1.02 | 1.09 | 1.02 |
| NCI-H1915 | 1.16 | 1.25 | 1.12 | 1.07 | 0.351 | 0.338 | 0.411 | 0.302 | 1.31 | 1.14 | 1.08 | 0.994 | 1.16 | 1.05 | 1.13 | 0.968 |
| NCI-H1975 | 0.938 | 1.08 | 1.01 | 0.93 | 0.362 | 0.382 | 0.457 | 0.38 | 0.356 | 0.338 | 0.45 | 0.433 | 1.27 | 0.869 | 1.23 | 0.929 |
| NCI-H1993 | 0.882 | 0.816 | 0.731 | 0.755 | 0.659 | 0.703 | 0.479 | 0.634 | 1.1 | 1.11 |  | 0.959 | 0.68 | 0.754 |  | 0.815 |
| NCI-H2009 | 1.38 | 1.26 | 1.24 | 1.28 | 0.303 | 0.294 | 0.278 | 0.271 | 1.07 | 1.19 | 1.16 | 1.01 | 0.661 | 1.04 | 1.1 | 0.893 |
| NCI-H2023 | 0.928 | 1.12 | 1.06 | 0.926 | 0.767 | 0.637 | 0.667 | 0.682 | 1.21 | 1.19 | 1.27 | 1.08 | 1.19 | 0.954 | 1.19 | 0.855 |
| NCI-H2085 | 0.978 | 0.847 | 0.763 | 0.804 | 0.246 | 0.223 | 0.236 | 0.227 | 1.14 | 0.998 | 1.2 | 1.16 | 0.831 | 0.821 | 0.764 | 0.763 |
| NCI-H2087 | 1.25 | 1.12 | 1.37 | 1.26 | 1.25 | 0.931 | 1.03 | 0.926 | 1.09 | 0.959 | 1.07 | 0.814 | 1.02 | 1.29 | 1.36 | 1.06 |
| NCI-H2126 | 1.15 | 1.21 | 1.32 | 1.25 | 0.624 | 0.645 | 0.616 | 0.601 | 1.13 | 1.17 | 1.19 | 1.19 | 0.899 | 0.768 | 0.827 | 0.784 |
| NCI-H2228 | 1.19 | 1.08 | 1.03 | 0.916 | 0.497 | 0.672 | 0.593 | 0.561 | 1.66 | 1.03 | 1.47 | 1.12 | 1.89 | 1.09 | 1.52 | 0.929 |
| NCI-H2347 | 0.826 | 1.03 | 1.36 | 0.854 | 0.344 | 0.281 | 0.287 | 0.323 | 0.985 | 1.24 | 1.14 | 1 | 1.01 | 1.06 | 0.991 | 0.944 |
| NCI-H2405 | 1.04 | 1.1 | 1.11 | 1.03 | 0.225 | 0.501 | 0.223 | 0.19 | 0.989 | 1.1 | 0.999 | 1.01 | 1.15 | 1.04 | 1.09 | 1.05 |
| NCI-H3122 | 1 | 0.951 | 0.957 | 0.984 | 1.03 | 0.936 | 0.837 | 0.84 | 1.04 | 0.974 | 1.05 | 0.994 | 1.1 | 1.08 | 0.988 | 1.05 |
| PC-3 [JPC-3] | 1.12 | 1.16 | 1.09 | 1 | 1 | 1.19 | 1.07 | 0.943 | 0.913 | 0.955 | 0.944 | 0.824 | 0.533 | 0.466 | 0.47 | 0.476 |
| PC-14 | 1.04 | 1.05 | 1.16 | 0.922 | 0.313 | 0.227 | 0.339 | 0.279 | 0.934 | 0.953 | 1.01 | 0.954 | 0.356 | 0.321 | 0.338 | 0.258 |
| RERF-LC-KJ | 0.971 | 1.02 | 1.08 | 0.868 | 1.08 | 0.883 | 0.82 | 0.939 | 1.17 | 1.21 | 1.09 | 1.05 | 0.876 | 0.944 | 0.963 | 0.918 |
| SK-LU-1 | 0.92 | 1.04 | 0.785 | 0.76 | 0.22 | 0.174 | 0.169 | 0.171 | 1.52 | 1.47 | 1.22 | 1.07 | 1.3 | 0.779 | 0.938 | 0.771 |
| SW 1573 | 0.953 | 0.947 | 1.02 | 0.337 | 0.531 | 0.63 | 0.456 | 0.528 | 1.38 | 1.06 | 1.08 | 0.996 | 1.31 | 1.29 | 1.24 | 0.701 |
| UMC-11 | 1.15 | 1.13 | 0.981 | 1.11 | 0.542 | 0.591 | 0.549 | 0.475 | 0.929 | 0.625 | 1.19 | 0.791 | 1.1 | 1.1 | 1.28 | 1.1 |

Source: the supplement of paper PMC10307832
